Patent US20220265817A1, “THERAPEUTIC COMPOSITIONS AND METHODS FOR TREATING HEPATITIS B” (priority 2017, published 2022)
Several values for one entry are separate records, joined by “and”; a condition that tells them apart may be missing. Equal values may be shown once. Read-outs that look alike come from different tables or passages of the source.

Assays:
Test in all cases: microbe, parasite or virus in culture
Format in all cases: cell-based
[1] = test system: D type HBV in primary human hepatocytes; settings: for EC50: PHH
Description: (§1) The mouse liver perfusion was applied to isolate PHHs. The isolated hepatocytes were further purified by Percoll. The cells were resuspended with culture media and seeded into the 96-well plates (6×10^4 cell/well) or 48-well plates (1.2×10^5 cell/well). The PHHs were infected with a D type HBV one day post seeding (day 1).
(§2) On day 2, the test compounds were diluted and added into the cell culture plates. The culture media containing the compounds were refreshed every other day. The cell culture supernatants were collected on day 8 for the HBV DNA and antigen determinations.
(§3) The compounds were tested at 7 concentrations, 3-fold dilution, in triplicate.
(§4) Two compounds were tested at 5×5 matrix, in triplicate plates.
DNA in the culture supernatants harvested on days 8 were isolated with QIAamp 96 DNA Blood Kit (Qiagen-51161). For each sample, 100 μl of the culture supernatants was used to extract DNA. The DNA was eluted with 100 μl, 150 μl or 180 μl of AE. HBV DNA in the culture supernatants was quantified by qPCR. The combination effect was analyzed by the MacSynergy software. The primers are described below.

[2] = test system: D type HBV in primary human hepatocytes (HBeAg)
Description: as §1, §2, §3, §4
(§5) HBsAg/HBeAg in the culture supernatants harvested on days 8 were measured by the HBsAg/HBeAg ELISA kit (Autobio) according to the manual. The samples were diluted with PBS to get the signal in the range of the standard curve. The inhibition rates were calculated with the formula below. The combination effect was analyzed by the MacSynergy software.
% Inh. HBeAg=[1-HBeAg quantity of sample/HBV quantity of DMSO control]×100.

[3] = test system: D type HBV in primary human hepatocytes (HBsAg)
Description: as §1, §2, §3, §4, §5
% Inh. HBsAg=[1-HBsAg quantity of sample/HBV quantity of DMSO control]×100.

[4] = Hepatitis B virus, Hepatocyte, 432 h, read-out: Inhibitor B EC50
[5] = Hepatitis B virus, Hepatocyte, 456 h, read-out: Inhibitor A EC50

## CNC(=O)N[C@H]1CCOc2c(C(=O)Nc3ccc(F)c(F)c3)ccc(F)c21 [Compound 23]
[1]; Hepatitis B virus, Hepatocyte, read-out: AVERAGE % […] DNA, compound 23 24.69 nM alone (TDF study)
  inhibition at 0.02469 µM: -15.3%
[1]; Hepatitis B virus, Hepatocyte, read-out: AVERAGE % […] DNA, compound 23 24.691 nM alone (TAF study)
  inhibition at 0.024691 µM: -4.57%
[1]; Hepatitis B virus, Hepatocyte, read-out: AVERAGE % […] DNA, compound 23 74.07 nM alone (TDF study)
  inhibition at 0.07407 µM: -36.6%
[1]; Hepatitis B virus, Hepatocyte, read-out: AVERAGE % […] DNA, compound 23 74.074 nM alone (TAF study)
  inhibition at 0.074074 µM: -2.49%
[1]; Hepatitis B virus, Hepatocyte, read-out: AVERAGE % […] DNA, compound 23 222.22 nM alone (TAF study)
  inhibition at 0.22222 µM: 11.1%
[1]; Hepatitis B virus, Hepatocyte, read-out: AVERAGE % […] DNA, compound 23 222.22 nM alone (TDF study)
  inhibition at 0.22222 µM: 0.78%
[1]; Hepatitis B virus, Hepatocyte, read-out: AVERAGE % […] DNA, compound 23 666.67 nM alone (TAF study)
  inhibition at 0.66667 µM: 30.5%
[1]; Hepatitis B virus, Hepatocyte, read-out: AVERAGE % […] DNA, compound 23 666.67 nM alone (TDF study)
  inhibition at 0.66667 µM: 30.4%
[1]; Hepatitis B virus, Hepatocyte, read-out: AVERAGE % […] DNA, compound 23 2000 nM alone (TAF study)
  inhibition at 2 µM: 58.1%
[1]; Hepatitis B virus, Hepatocyte, read-out: AVERAGE % […] DNA, compound 23 2000.00 nM alone (TDF study)
  inhibition at 2 µM: 70%
[1]; Hepatitis B virus, Hepatocyte, HBV DNA, determined in an earlier separate experiment, read-out: Inhibitor B EC50
  EC50: 230 nM
[2]; Hepatitis B virus, Hepatocyte, read-out: AVERAGE % INHIBITION HBeAg, compound 23 24.69 nM alone
  inhibition at 0.02469 µM: -8.82%
[2]; Hepatitis B virus, Hepatocyte, read-out: AVERAGE % INHIBITION HBeAg, compound 23 74.07 nM alone
  inhibition at 0.07407 µM: -6.36%
[2]; Hepatitis B virus, Hepatocyte, read-out: AVERAGE % INHIBITION HBeAg, compound 23 222.22 nM alone
  inhibition at 0.22222 µM: -12.7%
[2]; Hepatitis B virus, Hepatocyte, read-out: AVERAGE % INHIBITION HBeAg, compound 23 666.67 nM alone
  inhibition at 0.66667 µM: -7.94%
[2]; Hepatitis B virus, Hepatocyte, read-out: AVERAGE % INHIBITION HBeAg, compound 23 2000.00 nM alone
  inhibition at 2 µM: -1.09%
[2]; Hepatitis B virus, Hepatocyte, HBeAg, PHH, determined in an earlier separate experiment, read-out: Inhibitor B EC50
  EC50: 4530 nM
[3]; Hepatitis B virus, Hepatocyte, read-out: AVERAGE % INHIBITION HBsAg, compound 23 24.69 nM alone (TDF study)
  inhibition at 0.02469 µM: -13.9%
[3]; Hepatitis B virus, Hepatocyte, read-out: AVERAGE % INHIBITION HBsAg, compound 23 24.691 nM alone (TAF study)
  inhibition at 0.024691 µM: 0.77%
[3]; Hepatitis B virus, Hepatocyte, read-out: AVERAGE % INHIBITION HBsAg, compound 23 74.07 nM alone (TDF study)
  inhibition at 0.07407 µM: -10.9%
[3]; Hepatitis B virus, Hepatocyte, read-out: AVERAGE % INHIBITION HBsAg, compound 23 74.074 nM alone (TAF study)
  inhibition at 0.074074 µM: -5.27%
[3]; Hepatitis B virus, Hepatocyte, read-out: AVERAGE % INHIBITION HBsAg, compound 23 222.22 nM alone (TAF study)
  inhibition at 0.22222 µM: 4.83%
[3]; Hepatitis B virus, Hepatocyte, read-out: AVERAGE % INHIBITION HBsAg, compound 23 222.22 nM alone (TDF study)
  inhibition at 0.22222 µM: -11.6%
[3]; Hepatitis B virus, Hepatocyte, read-out: AVERAGE % INHIBITION HBsAg, compound 23 666.67 nM alone (TAF study)
  inhibition at 0.66667 µM: 1.95%
[3]; Hepatitis B virus, Hepatocyte, read-out: AVERAGE % INHIBITION HBsAg, compound 23 666.67 nM alone (TDF study)
  inhibition at 0.66667 µM: -4.45%
[3]; Hepatitis B virus, Hepatocyte, read-out: AVERAGE % INHIBITION HBsAg, compound 23 2000.00 nM alone (TDF study)
  inhibition at 2 µM: 0.48%
[3]; Hepatitis B virus, Hepatocyte, read-out: Inhibitor B EC50
  EC50: 4360 nM

## COCCCOc1cc2c(cc1OC)-c1cc(=O)c(C(=O)O)cn1C(C(C)C)C2 (centres unmarked) [Compound 25]
[1]; COMPOUND 25 0.37 nM alone
  AVERAGE % INHIBITION HBV DNA: −51.8% and −46.48%
[1]; COMPOUND 25 3.33 nM alone
  AVERAGE % INHIBITION HBV DNA: 16.41%
[1]; COMPOUND 25 10.00 nM alone
  AVERAGE % INHIBITION HBV DNA: 37.39%
[1]; Hepatitis B virus, Hepatocyte, 432 h, HBV DNA endpoint, determined in an earlier separate experiment (Table 18d), read-out: Inhibitor B EC50
  EC50: 0.654 nM
[1]; Hepatitis B virus, Hepatocyte, 456 h, HBV DNA endpoint, determined in an earlier separate experiment (Table 19d), read-out: Inhibitor A EC50
  EC50: 0.654 nM
[1]; Hepatitis B virus, Hepatocyte, read-out: AVERAGE % […] DNA, COMPOUND 25 3.33 nM alone, read-out: AVERAGE % INHIBITION HBV DNA
  inhibition at 0.00333 µM: 15.2%
[1]; Hepatitis B virus, Hepatocyte, read-out: AVERAGE % […] DNA, COMPOUND 25 10.00 nM alone, read-out: AVERAGE % INHIBITION HBV DNA
  inhibition at 0.01 µM: 28%
[1]; Hepatitis B virus, Hepatocyte, read-out: AVERAGE % […] DNA, compound 25 0.12 μM alone
  inhibition at 0.12 µM: -14.4%
[1]; Hepatitis B virus, Hepatocyte, read-out: AVERAGE % […] DNA, compound 25 0.37 μM alone
  inhibition at 0.37 µM: -9.87%
[1]; Hepatitis B virus, Hepatocyte, read-out: AVERAGE % […] DNA, compound 25 3.33 μM alone
  inhibition at 3.33 µM: 32.6%
[1]; Hepatitis B virus, Hepatocyte, read-out: AVERAGE % […] DNA, compound 25 10.00 μM alone
  inhibition at 10 µM: 53.8%
[1]; Hepatitis B virus, Hepatocyte, determined in an earlier separate experiment, read-out: Inhibitor A EC50 HBV DNA
  EC50: 0.653 nM
[2]; COMPOUND 25 0.12 nM alone
  AVERAGE % INHIBITION HBeAg: 4.8%
[2]; COMPOUND 25 0.37 nM alone
  AVERAGE % INHIBITION HBeAg: −0.51% and 2.9%
[2]; COMPOUND 25 3.33 nM alone
  AVERAGE % INHIBITION HBeAg: 13.94%
[2]; COMPOUND 25 10.00 nM alone
  AVERAGE % INHIBITION HBeAg: 28.42%
[2]; [4]
  EC50: 5.75 nM
[2]; [5]
  EC50: 5.75 nM
[2]; Hepatitis B virus, Hepatocyte, read-out: AVERAGE % INHIBITION HBeAg, COMPOUND 25 0.12 nM alone
  inhibition at 0.00012 µM: 5.33%
[2]; Hepatitis B virus, Hepatocyte, read-out: AVERAGE % INHIBITION HBeAg, COMPOUND 25 3.33 nM alone
  inhibition at 0.00333 µM: 8.74%
[2]; Hepatitis B virus, Hepatocyte, read-out: AVERAGE % INHIBITION HBeAg, COMPOUND 25 10.00 nM alone
  inhibition at 0.01 µM: 33.2%
[2]; Hepatitis B virus, Hepatocyte, read-out: AVERAGE % INHIBITION HBeAg, COMPOUND 25 0.12 μM alone
  inhibition at 0.12 µM: -11.2%
[2]; Hepatitis B virus, Hepatocyte, read-out: AVERAGE % INHIBITION HBeAg, COMPOUND 25 0.37 μM alone
  inhibition at 0.37 µM: -13.8%
[2]; Hepatitis B virus, Hepatocyte, read-out: AVERAGE % INHIBITION HBeAg, COMPOUND 25 3.33 μM alone
  inhibition at 3.33 µM: -7.31%
[2]; Hepatitis B virus, Hepatocyte, read-out: AVERAGE % INHIBITION HBeAg, COMPOUND 25 10.00 μM alone
  inhibition at 10 µM: 22%
[2]; Hepatitis B virus, Hepatocyte, read-out: Inhibitor A EC50 HBeAg
  EC50: 5.75 nM
[3]; COMPOUND 25 0.12 nM alone
  AVERAGE % INHIBITION (HBsAg): 3.68% and 9.32%
[3]; COMPOUND 25 3.33 nM alone
  AVERAGE % INHIBITION (HBsAg): 20.81%
[3]; COMPOUND 25 10.00 nM alone
  AVERAGE % INHIBITION (HBsAg): 42.95%
[3]; [4]
  EC50: 4.5 nM
[3]; [5]
  EC50: 4.5 nM
[3]; Hepatitis B virus, Hepatocyte, COMPOUND 25 0.12 μM alone
  inhibition at 0.12 µM: -5.64%
[3]; Hepatitis B virus, Hepatocyte, COMPOUND 25 0.37 μM alone
  inhibition at 0.37 µM: -7.52%
[3]; Hepatitis B virus, Hepatocyte, read-out: AVERAGE % INHIBITION HBsAg, COMPOUND 25 3.33 nM alone
  inhibition at 0.00333 µM: 13.1%
[3]; Hepatitis B virus, Hepatocyte, read-out: AVERAGE % INHIBITION HBsAg, COMPOUND 25 10.00 nM alone
  inhibition at 0.01 µM: 33%
[3]; Hepatitis B virus, Hepatocyte, read-out: AVERAGE % INHIBITION HBsAg, COMPOUND 25 3.33 μM alone
  inhibition at 3.33 µM: 8.81%
[3]; Hepatitis B virus, Hepatocyte, read-out: AVERAGE % INHIBITION HBsAg, COMPOUND 25 10.00 μM alone
  inhibition at 10 µM: 42.5%
[3]; Hepatitis B virus, Hepatocyte, read-out: Inhibitor A EC50 HBsAg
  EC50: 4.5 nM
